Assay results reported in patent US10538561B2, “Peptide for treating inflammatory diseases” (priority 2015, dated 2020).

What was measured:
JAK3 = molecular target: T1, JAK3 (Homo sapiens, UniProt P52333); assay: Biochemical kinase assay JAK3
T1 sequence (P52333 1-1124): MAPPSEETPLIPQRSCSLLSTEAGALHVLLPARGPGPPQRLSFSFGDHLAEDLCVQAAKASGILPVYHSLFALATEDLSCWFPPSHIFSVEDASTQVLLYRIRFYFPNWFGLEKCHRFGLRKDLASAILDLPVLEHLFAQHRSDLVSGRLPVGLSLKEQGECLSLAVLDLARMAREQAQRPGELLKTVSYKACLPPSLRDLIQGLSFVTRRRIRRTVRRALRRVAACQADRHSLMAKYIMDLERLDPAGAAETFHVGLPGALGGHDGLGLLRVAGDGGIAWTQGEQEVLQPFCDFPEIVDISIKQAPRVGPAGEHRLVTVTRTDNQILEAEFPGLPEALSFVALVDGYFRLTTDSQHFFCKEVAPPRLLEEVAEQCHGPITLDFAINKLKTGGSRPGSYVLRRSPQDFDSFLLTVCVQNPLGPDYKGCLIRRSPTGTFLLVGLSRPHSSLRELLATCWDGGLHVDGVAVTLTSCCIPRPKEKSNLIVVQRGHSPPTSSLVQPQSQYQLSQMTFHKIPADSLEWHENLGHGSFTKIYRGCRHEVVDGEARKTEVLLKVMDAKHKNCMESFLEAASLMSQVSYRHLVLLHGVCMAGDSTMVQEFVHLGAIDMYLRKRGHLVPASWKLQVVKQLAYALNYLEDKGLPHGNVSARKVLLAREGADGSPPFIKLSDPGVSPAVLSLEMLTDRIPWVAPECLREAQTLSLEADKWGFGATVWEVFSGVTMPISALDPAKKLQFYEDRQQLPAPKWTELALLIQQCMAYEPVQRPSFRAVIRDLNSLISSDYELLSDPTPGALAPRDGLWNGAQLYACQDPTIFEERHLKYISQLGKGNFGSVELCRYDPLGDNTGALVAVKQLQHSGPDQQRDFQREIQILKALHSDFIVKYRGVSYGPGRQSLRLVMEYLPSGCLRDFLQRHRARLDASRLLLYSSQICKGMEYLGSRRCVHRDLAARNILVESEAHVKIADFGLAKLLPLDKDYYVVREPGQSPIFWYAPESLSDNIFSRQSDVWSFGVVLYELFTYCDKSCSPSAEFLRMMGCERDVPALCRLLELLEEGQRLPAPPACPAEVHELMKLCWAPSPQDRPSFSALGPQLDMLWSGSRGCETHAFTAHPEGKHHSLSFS
Experimental: Test system: cell free assays; test items: IS181; concentrations tested: 1 ng/ml-5000 μg/ml; Kinases: a) Cell free assays: EGFR (ErbB1); FLT1 (VEGFR1); JAK1; JAK3 MAP2K1 (MEK1); PDGFRA (PDGFR alpha); PRKCA (PKC alpha); b) cell based assay: JAK-STAT.

[1] = Solution stability in diluents; type: physicochemical; details: 24 hours
Experimental: The solution stability of peptide IS 181 was performed in four different diluents at three different temperatures for 24 hours. Four different pre-formulations of concentration 10 mg/ml were prepared and formulation assay was performed at initial and […] at room temperature.

inhibition at 10 µg/mL (JAK3; 10 μg/ml): 13%
inhibition at 50 µg/mL (JAK3; cell free, 50 μg/ml): 13%
inhibition at 100 µg/mL (JAK3; cell free, 100 μg/ml): -24%
inhibition at 250 µg/mL (JAK3; cell free, 250 μg/ml): -72%
inhibition at 500 µg/mL (JAK3; cell free, 500 μg/ml): -142%
inhibition at 1000 µg/mL (JAK3; cell free, 1000 μg/ml): -198%
% Stability ([1]; 0.9% NaCl solution, 2-8° C.): 93.64%
% Stability ([1]; 0.9% NaCl solution, 37° C.): 104.94%
% Stability ([1]; 0.9% NaCl solution, Room Temperature): 101.84%
% Stability ([1]; Phosphate buffer pH 5.0, 2-8° C.): 96.53%
% Stability ([1]; Phosphate buffer pH 5.0, 37° C.): 104.05%
% Stability ([1]; Phosphate buffer pH 5.0, Room Temperature): 102.20%
% Stability ([1]; Phosphate buffer pH 7.4, 2-8° C.): 97.99%
% Stability ([1]; Phosphate buffer pH 7.4, 37° C.): 107.22%
% Stability ([1]; Phosphate buffer pH 7.4, Room Temperature): 102.41%
% Stability ([1]; Water, 2-8° C.): 94.66%
% Stability ([1]; Water, 37° C.): 98.57%
% Stability ([1]; Water, Room Temperature): 93.99%
Substance: H-WVQRVVEKFLK-OH [IS181, H-Trp-Val-Gln-Arg-Val-Val-Glu-Lys-Phe-Leu-Lys-OH]
